Marks after values point to notes of the source that are not given here.
Legend:
advanced solid tumours = test: Part A tumour response (RECIST 1.0); assay type: in vivo, human
Experimental: The primary objectives of this phase 1 study were to evaluate the safety, tolerability, and MTD of once-weekly (Schedule I) and twice-weekly (Schedule II) dosing. […] Toxicity was managed by dose interruption, reduction, and/or discontinuation. Only Cycle 1 adverse events (AEs) were evaluable as DLTs. […] All ongoing patients could continue at 320 mg/m^2, regardless of initial starting dose.
(§1) Efficacy was assessed by tumour response determined by investigator review of computed tomography/magnetic resonance imaging scans using Response Evaluation Criteria in Solid tumours version 1.0 (RECIST).[17]

phosphor-ERK levels = details: quoted in discussion, no reference given; read-out: IC50 for inhibition of phosphor-ERK levels; cited from earlier work
[1] = system: BRAF-mutated human cancer xenograft models; details: Q4D x3 schedule; cited from earlier work
[2] = system: metastatic BRAF-mutated or WT melanoma; test: Part B tumour response (RECIST 1.0); assay type: in vivo, human; details: for Duration of SD: one patient; for Median (95% CI) duration of PFS / Median (95% CI) duration of SD: Kaplan-Meier estimate
Experimental: In Part B, an adaptive study design was planned to define an optimal dosing schedule. […] One dose escalation (from 160 mg/m^2 to 320 mg/m^2) was allowed in Schedule II for MTD determination. […] Toxicity was managed as before. Up to 30 patients with BRAF-mutated melanoma and up to 29 patients with BRAF-WT melanoma were to be enrolled in Schedule I. Up to 30 patients were to be enrolled into Schedule II once the MTD was confirmed.
as §1

[3] = Part B, BRAF-WT 320 mg/m^2 once weekly (n=7)
[4] = Part B, BRAF-mutated 160 mg/m^2 twice weekly (n=3)
[5] = Part B, BRAF-mutated 320 mg/m^2 once weekly (n=20)

CCNc1cc(O)c2c(c1)/C=C/C[C@H](O)[C@H](O)C(=O)/C=C\[C@@H](C)[C@H](C)OC2=O [E6201, (3S,4R,5Z,8S,9S,11E)-14-(ethylamino)-8,9,16-trihydroxy-3,4-dimethyl-3,4,9,19-tetrahydro-1H-2-benzoxacyclotetradecine-1,7 (8H)-dione]
Best overall response: Complete response (CR) (advanced solid tumours; 20 mg/m^2 (n=4)): 0 n (%)
Best overall response: Not evaluable (NE) (advanced solid tumours; 20 mg/m^2 (n=4)): 0 n (%)
Best overall response: Partial response (PR) (advanced solid tumours; 20 mg/m^2 (n=4)): 0 n (%)
Best overall response: Progressive disease (PD) (advanced solid tumours; 20 mg/m^2 (n=4)): 3 (75.0) n (%)
Disease control rate (CR+PR+SD) (advanced solid tumours; 20 mg/m^2 (n=4)): 1 (25.0) n (%)
Overall response rate (CR+PR) (advanced solid tumours; 20 mg/m^2 (n=4)): 0 n (%)
Best overall response: Complete response (CR) (advanced solid tumours; 40 mg/m^2 (n=3)): 0 n (%)
Best overall response: Not evaluable (NE) (advanced solid tumours; 40 mg/m^2 (n=3)): 0 n (%)
Best overall response: Partial response (PR) (advanced solid tumours; 40 mg/m^2 (n=3)): 0 n (%)
Best overall response: Progressive disease (PD) (advanced solid tumours; 40 mg/m^2 (n=3)): 1 (33.3) n (%)
Disease control rate (CR+PR+SD) (advanced solid tumours; 40 mg/m^2 (n=3)): 2 (66.7) n (%)
Overall response rate (CR+PR) (advanced solid tumours; 40 mg/m^2 (n=3)): 0 n (%)
Duration of SD (advanced solid tumours; 40 mg/m^2, patient with biliary duct cancer (BRAF-WT)): 4 cycles
Duration of SD (advanced solid tumours; 40 mg/m^2, patient with colon cancer (BRAF-WT)): 6 cycles
Best overall response: Complete response (CR) (advanced solid tumours; 80 mg/m^2 (n=3)): 0 n (%)
Best overall response: Not evaluable (NE) (advanced solid tumours; 80 mg/m^2 (n=3)): 0 n (%)
Best overall response: Partial response (PR) (advanced solid tumours; 80 mg/m^2 (n=3)): 0 n (%)
Best overall response: Progressive disease (PD) (advanced solid tumours; 80 mg/m^2 (n=3)): 2 (66.7) n (%)
Disease control rate (CR+PR+SD) (advanced solid tumours; 80 mg/m^2 (n=3)): 1 (33.3) n (%)
Overall response rate (CR+PR) (advanced solid tumours; 80 mg/m^2 (n=3)): 0 n (%)
Duration of SD (advanced solid tumours; 80 mg/m^2, patient with BRAF-WT uveal melanoma): 15 cycles
Best overall response: Complete response (CR) (advanced solid tumours; 160 mg/m^2 (n=3)): 0 n (%)
Best overall response: Not evaluable (NE) (advanced solid tumours; 160 mg/m^2 (n=3)): 1 (33.3) n (%)
Best overall response: Partial response (PR) (advanced solid tumours; 160 mg/m^2 (n=3)): 0 n (%)
Best overall response: Progressive disease (PD) (advanced solid tumours; 160 mg/m^2 (n=3)): 2 (66.7) n (%)
Disease control rate (CR+PR+SD) (advanced solid tumours; 160 mg/m^2 (n=3)): 0 n (%)
Overall response rate (CR+PR) (advanced solid tumours; 160 mg/m^2 (n=3)): 0 n (%)
Best overall response: Complete response (CR) (advanced solid tumours; 320 mg/m^2 (n=7)): 0 n (%)
Best overall response: Not evaluable (NE) (advanced solid tumours; 320 mg/m^2 (n=7)): 1 (14.3) n (%)
Best overall response: Partial response (PR) (advanced solid tumours; 320 mg/m^2 (n=7)): 0 n (%)
Best overall response: Progressive disease (PD) (advanced solid tumours; 320 mg/m^2 (n=7)): 4 (57.1) n (%)
Disease control rate (CR+PR+SD) (advanced solid tumours; 320 mg/m^2 (n=7)): 1 (14.3) n (%)
Overall response rate (CR+PR) (advanced solid tumours; 320 mg/m^2 (n=7)): 0 n (%)
Best overall response: Complete response (CR) (advanced solid tumours; 400 mg/m^2 (n=1)): 0 n (%)
Best overall response: Not evaluable (NE) (advanced solid tumours; 400 mg/m^2 (n=1)): 0 n (%)
Best overall response: Partial response (PR) (advanced solid tumours; 400 mg/m^2 (n=1)): 0 n (%)
Best overall response: Progressive disease (PD) (advanced solid tumours; 400 mg/m^2 (n=1)): 0 n (%)
Disease control rate (CR+PR+SD) (advanced solid tumours; 400 mg/m^2 (n=1)): 1 (100) n (%)
Overall response rate (CR+PR) (advanced solid tumours; 400 mg/m^2 (n=1)): 0 n (%)
Duration of SD (advanced solid tumours; 400 mg/m^2, patient with gastric carcinoid (BRAF status unknown)): 4 cycles
Best overall response: Complete response (CR) (advanced solid tumours; 480 mg/m^2 (n=4)): 0 n (%)
Best overall response: Not evaluable (NE) (advanced solid tumours; 480 mg/m^2 (n=4)): 0 n (%)
Best overall response: Partial response (PR) (advanced solid tumours; 480 mg/m^2 (n=4)): 1 (25.0)^a n (%)
Best overall response: Progressive disease (PD) (advanced solid tumours; 480 mg/m^2 (n=4)): 0 n (%)
Disease control rate (CR+PR+SD) (advanced solid tumours; 480 mg/m^2 (n=4)): 3 (75.0) n (%)
Overall response rate (CR+PR) (advanced solid tumours; 480 mg/m^2 (n=4)): 1 (25.0) n (%)
Duration of SD (advanced solid tumours; 480 mg/m^2, patient with papillary thyroid cancer (BRAF-WT)): 4 cycles
Duration of partial response (advanced solid tumours; BRAF-mutated papillary thyroid cancer patient, 480 mg/m^2): 4 cycles
Best overall response: Complete response (CR) (advanced solid tumours; Total (N=25)): 0 n (%)
Best overall response: Not evaluable (NE) (advanced solid tumours; Total (N=25)): 2 (8.0) n (%)
Best overall response: Partial response (PR) (advanced solid tumours; Total (N=25)): 1 (4.0) n (%)
Best overall response: Progressive disease (PD) (advanced solid tumours; Total (N=25)): 12 (48.0) n (%)
Disease control rate (CR+PR+SD) (advanced solid tumours; Total (N=25)): 9 (36.0) n (%)
Overall response rate (CR+PR) (advanced solid tumours; Total (N=25)): 1 (4.0) n (%)
Number of partial responses (PR) (advanced solid tumours; V600E BRAF-mutated papillary thyroid cancer, 480 mg/m^2 qw): One
Patients with SD for ≥4 cycles (3.7 months) (advanced solid tumours; five patients): 20.0%
IC50 (phosphor-ERK levels): 2.08 nM
Duration of significant and prolonged anti-tumour activity from first dose [1]: > 20 days
Patients with PR / patients ([2]; Part B, BRAF-WT): 1/7
Patients with SD / patients ([2]; Part B, BRAF-WT): 1/7
Complete response (CR) [2, 3]: 0 n (%)
Disease control rate (CR+PR+SD) [2, 3]: 2 (28.6) n (%)
Not evaluable (NE) [2, 3]: 1 (14.3) n (%)
Overall response rate (CR+PR) [2, 3]: 1 (14.3) n (%)
Partial response (PR) [2, 3]: 1 (14.3)^b n (%)
Progressive disease (PD) [2, 3]: 2 (28.6) n (%)
Duration of SD ([2]; Part B, BRAF-WT 320 mg/m^2 once weekly): 4 cycles
Disease control rate (DCR; complete response + PR + SD) ([2]; Part B, BRAF-WT melanoma (2/7)): 28.6%
Complete response (CR) [2, 4]: 0 n (%)
Disease control rate (CR+PR+SD) [2, 4]: 1 (33.3) n (%)
Not evaluable (NE) [2, 4]: 0 n (%)
Overall response rate (CR+PR) [2, 4]: 0 n (%)
Partial response (PR) [2, 4]: 0 n (%)
Progressive disease (PD) [2, 4]: 1 (33.3) n (%)
Median (95% CI) duration of PFS [2, 4]: 83.5 (29.0–138.0) days
Median (95% CI) duration of SD [2, 4]: 138.0 (29.0–138.0) days
Duration of SD ([2]; Part B, BRAF-mutated 160 mg/m^2 twice weekly): > 4 cycles
Patients with SD for ≥4 cycles ([2]; Part B, BRAF-mutated 320 mg/m^2 once weekly): 5 patients
Complete response (CR) [2, 5]: 0 n (%)
Disease control rate (CR+PR+SD) [2, 5]: 9 (45.0) n (%)
Not evaluable (NE) [2, 5]: 1 (5.0) n (%)
Overall response rate (CR+PR) [2, 5]: 2 (10.0) n (%)
Partial response (PR) [2, 5]: 2 (10.0)^a n (%)
Progressive disease (PD) [2, 5]: 6 (30.0) n (%)
Median (95% CI) duration of PFS [2, 5]: 73.0 (26.0–166.0) days
Median (95% CI) duration of SD [2, 5]: 73.0 (29.0–166.0) days
Patients with PR / patients ([2]; Part B, BRAF-mutated melanoma): 2/23
Patients with SD / patients ([2]; Part B, BRAF-mutated melanoma): 8/23
Disease control rate (DCR; complete response + PR + SD) ([2]; Part B, BRAF-mutated melanoma (10/23)): 43.5%
Complete response (CR) ([2]; Part B, Total (N=30)): 0 n (%)
Disease control rate (CR+PR+SD) ([2]; Part B, Total (N=30)): 12 (40.0) n (%)
Not evaluable (NE) ([2]; Part B, Total (N=30)): 2 (6.7) n (%)
Overall response rate (CR+PR) ([2]; Part B, Total (N=30)): 3 (10.0) n (%)
Partial response (PR) ([2]; Part B, Total (N=30)): 3 (10.0) n (%)
Progressive disease (PD) ([2]; Part B, Total (N=30)): 9 (30.0) n (%)
Number of partial responses (PR) ([2]; Part B, all): three
Patients with SD for ≥4 cycles (3.7 months) ([2]; Part B, all groups): seven
Number of partial responses (PR) ([2]; Part B, BRAF-WT melanoma, 320 mg/m^2 once-weekly): 1
Number of partial responses (PR) ([2]; Part B, V600E BRAF-mutated melanoma, 320 mg/m^2 once-weekly): 2
Response of brain metastases ([2]; one patient with BRAF-mutated melanoma who achieved a PR): brain metastases that responded to treatment

Source: PMC6008465 (British Journal of Cancer, 2018)
